Earlier results on one substance are cited in patent publication US20070082064A1, “Nutritional or dietary supplement for the treatment of macular degeneration” (priority 2005, published 2007).

vitamin E: for the setting “daily dose of 200 IU per day”, the risk of death result is reported as “no increased risk of death”. For the same substance, where the note is “daily doses of 400 IU or more, meta-analysis of 19 trials, more than 136,000 patients”, the “risk of death higher than among those taking placebos” value was “about 10%”.
